IC50 data for 1 compound are collected here from patent US11806363B1, “Green synthesis of silver nanoparticles using euphorbia dendroides aqueous extract” (King Faisal University, priority 2023, dated 2023).

For one assay, the system named is HepG2 cells. The assay is described as follows: MTT cytotoxicity assay, HepG2 cells. It counts as cell-based. The following applies: Homo sapiens, 48 h treatment, triplicate, mean ±SD, read-out: IC50 (50% inhibition of cancer cell growth).
In a further assay the test system is HCT-116 cells. The assay is described as follows: MTT cytotoxicity assay, HCT-116 cells. The class given is cell-based. The note with it: Homo sapiens; HCT-116, MTT, 48 h treatment, triplicate, mean ±SD; read-out: IC50 (50% inhibition of cancer cell growth).

Each structure is given as a SMILES string. Values after ≈ are worked out from the molar mass of the structure shown.

Turning to `COc1cccc2c1C(=O)c1c(O)c3c(c(O)c1C2=O)C[C@@](O)(C(=O)CO)C[C@@H]3O[C@H]1C[C@H](N)[C@H](O)[C@H](C)O1` [DOX, doxorubicin], the IC50 with HepG2 cells stood at 0.38 ± 0.07 µg/mL (≈ 0.699 µM); with HCT-116 cells, 0.86 ± 0.16 µg/mL (≈ 1.58 µM).
